In patent US20210101874A1, “MICROBIOCIDAL OXADIAZOLE DERIVATIVES” (SYNGENTA PARTICIPATIONS AG, priority 2017, published 2021):

Tests used:
[1] = system: Glomerella lagenarium (Colletotrichum lagenarium); test: Glomerella lagenarium (Colletotrichum lagenarium) liquid culture / cucumber / preventative (anthracnose); format: cell-based; conditions: Colletotrichum orbiculare; 20 ppm in the applied formulation; conidia in PDB nutrient broth, 24° C.; 3 to 4 days after application; compared to untreated; read-out: disease control (inhibition of growth measured photometrically)
Method in brief: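 Test compound, diluted from DMSO, was mixed in microtiter wells with fungal conidia taken from cryogenic storage and suspended in PDB nutrient broth. After 3 to 4 days at 24 °C, photometric growth measurement gave antifungal activity as a percentage of the untreated control.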

[2] = system: Puccinia recondita f. sp. Tritici; test: Puccinia recondita f. sp. tritici / wheat / leaf disc preventative (brown rust); format: in vivo; conditions: foliar, 200 ppm in the applied formulation, wheat leaf segments cv. Kanzler, inoculated 1 day after application, compared to untreated, assessed 7 to 9 days after application, read-out: disease control
Method in brief: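 Preventative leaf-segment test, cv. Kanzler on agar: spray compound, inoculate with spore suspension 1 d post-application, hold at 19° C./75% rh, 12 h/12 h light cycle. Read-out = % disease control vs untreated check at 7–9 d; 200 ppm in applied formulation.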

[3] = system: Puccinia recondita f. sp. Tritici; test: Puccinia recondita f. sp. tritici / wheat / leaf disc curative (brown rust); format: in vivo; conditions: foliar, 200 ppm in the applied formulation, wheat leaf segments cv. Kanzler, applied 1 day after inoculation, compared to untreated, assessed 6 to 8 days after application, read-out: disease control
Protocol: Leaf disks or leaf segments of various plant species are cut from plants grown in a greenhouse. The cut leaf disks or segments are placed in multiwell plates (24-well format) onto water agar. The leaf disks are sprayed with a test solution before (preventative) or after (curative) inoculation. Compounds to be tested are prepared as DMSO solutions (max. 10 mg/ml) which are diluted to the appropriate concentration with 0.025% Tween20 just before spraying. The inoculated leaf disks or segments are incubated under defined conditions (temperature, relative humidity, light, etc.) according to the respective test system. A single evaluation of disease level is carried out 3 to 14 days after inoculation, depending on the pathosystem. Percent disease control relative to the untreated check leaf disks or segments is then calculated.
Wheat leaf segments cv. Kanzler are placed on agar in multiwell plates (24-well format). The leaf segments are then inoculated with a spore suspension of the fungus. Plates were stored in darkness at 19° C. and 75% relative humidity. The formulated test compound diluted in water was applied 1 day after inoculation. The leaf segments were incubated at 19° C. and 75% relative humidity under a light regime of 12 hours light/12 hours darkness in a climate cabinet and the activity of a compound was assessed as percent disease control compared to untreated when an appropriate level of disease damage appears in untreated check leaf segments (6 to 8 days after application).
The following compounds at 200 ppm in the applied formulation give at least 80% disease control in this test when compared to untreated control leaf disks under the same conditions, which show extensive disease development.

CCS(=O)(=O)NCc1ccc(-c2noc(C(F)(F)F)n2)cc1F [Compound 2.25, N-[[2-fluoro-4-[5-(trifluoromethyl)-1,2,4-oxadiazol-3-yl]phenyl]methyl] ethanesulfon-amide]
≥ 80%: inhibition at 20 ppm [1] | pest or weed control at 200 ppm [2] | pest or weed control at 200 ppm [3]

CN(C)S(=O)(=O)NCc1ccc(-c2noc(C(F)(F)F)n2)cc1F [Compound 2.31, 3-[4-[(dimethyl-sulfamoylamino)methyl]-3-fluoro-phenyl]-5-(trifluoromethyl)-1,2,4-oxadiazole]
≥ 80%: inhibition at 20 ppm [1] | pest or weed control at 200 ppm [2] | pest or weed control at 200 ppm [3]

C/C=C/S(=O)(=O)N(CC)Cc1ccc(-c2noc(C(F)(F)F)n2)cc1 [Compound 1.39, (E)-N-ethyl-N-[[4-[5-(trifluoromethyl)-1,2,4-oxadiazol-3-yl]phenyl]methyl] prop-1-ene-1-sulfonamide]
≥ 80%: inhibition at 20 ppm [1] | pest or weed control at 200 ppm [2] | pest or weed control at 200 ppm [3]

CCN(Cc1ccc(-c2noc(C(F)(F)F)n2)cc1)S(=O)(=O)CCOC [Compound 1.37, N-ethyl-2-methoxy-N-[[4-[5-(trifluoromethyl)-1,2,4-oxadiazol-3-yl]phenyl]methyl] ethanesulfonamide]
≥ 80%: inhibition at 20 ppm [1] | pest or weed control at 200 ppm [2] | pest or weed control at 200 ppm [3]

O=S(=O)(CC1CC1)NCc1ccc(-c2noc(C(F)(F)F)n2)c(F)c1 [Compound 3.21, 1-cyclopropyl-N-[[3-fluoro-4-[5-(trifluoromethyl)-1,2,4-oxadiazol-3-yl]phenyl]methyl] methanesulfonamide]
≥ 80%: inhibition at 20 ppm [1] | pest or weed control at 200 ppm [2] | pest or weed control at 200 ppm [3]

O=S(=O)(CC1CC1)NCc1ccc(-c2noc(C(F)(F)F)n2)cc1F [Compound 3.31, 1-cyclopropyl-N-[[2-fluoro-4-[5-(trifluoromethyl)-1,2,4-oxadiazol-3-yl]phenyl]methyl] methanesulfonamide]
≥ 80%: inhibition at 20 ppm [1] | pest or weed control at 200 ppm [2] | pest or weed control at 200 ppm [3]

CCCN(Cc1ccc(-c2noc(C(F)(F)F)n2)cc1)S(C)(=O)=O [Compound 1.79, N-propyl-N-[[4-[5-(trifluoromethyl)-1,2,4-oxadiazol-3-yl]phenyl]methyl] methanesulfonamide]
≥ 80%: inhibition at 20 ppm [1] | pest or weed control at 200 ppm [2] | pest or weed control at 200 ppm [3]

CNS(=O)(=O)NCc1ccc(-c2noc(C(F)(F)F)n2)cc1F [Compound 2.29, 1-[2-fluoro-4-[5-(trifluoromethyl)-1,2,4-oxadiazol-3-yl]phenyl]-N-(methylsulfamoyl) methanamine]
≥ 80%: inhibition at 20 ppm [1] | pest or weed control at 200 ppm [2] | pest or weed control at 200 ppm [3]

COCCS(=O)(=O)NCc1ccc(-c2noc(C(F)(F)F)n2)cc1F [Compound 2.34, N-[[2-fluoro-4-[5-(trifluoromethyl)-1,2,4-oxadiazol-3-yl]phenyl]methyl]-2-methoxy-ethanesulfon-amide]
≥ 80%: inhibition at 20 ppm [1] | pest or weed control at 200 ppm [2] | pest or weed control at 200 ppm [3]

CCN(Cc1ccc(-c2noc(C(F)(F)F)n2)cc1F)S(=O)(=O)N(C)C [Compound 1.105, N-(dimethylsulfamoyl)-N-[[2-fluoro-4-[5-(trifluoromethyl)-1,2,4-oxadiazol-3-yl]phenyl]methyl] ethanamine]
≥ 80%: inhibition at 20 ppm [1] | pest or weed control at 200 ppm [2] | pest or weed control at 200 ppm [3]

CCN(Cc1ccc(-c2noc(C(F)(F)F)n2)cc1)S(=O)(=O)CC(=O)OC [Compound 1.59, methyl 2-[ethyl-[[4-[5-(trifluoromethyl)-1,2,4-oxadiazol-3-yl]phenyl]methyl]sulfamoyl]acetate]
≥ 80%: inhibition at 20 ppm [1] | pest or weed control at 200 ppm [2] | pest or weed control at 200 ppm [3]

COCCS(=O)(=O)NCc1ccc(-c2noc(C(F)(F)F)n2)c(F)c1 [Compound 2.17, N-[[3-fluoro-4-[5-(trifluoromethyl)-1,2,4-oxadiazol-3-yl]phenyl]methyl]-2-methoxy-ethanesulfon-amide]
≥ 80%: inhibition at 20 ppm [1] | pest or weed control at 200 ppm [2] | pest or weed control at 200 ppm [3]

CCN(Cc1ccc(-c2noc(C(F)(F)F)n2)cc1)S(=O)(=O)NC [Compound 1.63, 3-[4-[[ethyl (methylsulfamoyl)amino]methyl]phenyl]-5-(trifluoromethyl)-1,2,4-oxadiazole]
≥ 80%: inhibition at 20 ppm [1] | pest or weed control at 200 ppm [2] | pest or weed control at 200 ppm [3]

C=CCS(=O)(=O)N(CC)Cc1ccc(-c2noc(C(F)(F)F)n2)cc1 [Compound 1.34, N-ethyl-N-[[4-[5-(trifluoromethyl)-1,2,4-oxadiazol-3-yl]phenyl]methyl] prop-2-ene-1-sulfonamide]
≥ 80%: inhibition at 20 ppm [1] | pest or weed control at 200 ppm [2] | pest or weed control at 200 ppm [3]

Cn1ccc(S(=O)(=O)NCc2ccc(-c3noc(C(F)(F)F)n3)cc2F)n1 [Compound 3.24, N-[[2-fluoro-4-[5-(trifluoromethyl)-1,2,4-oxadiazol-3-yl]phenyl]methyl]-1-methyl-pyrazole-3-sulfonamide]
≥ 80%: inhibition at 20 ppm [1] | pest or weed control at 200 ppm [2] | pest or weed control at 200 ppm [3]

CC(C)N(Cc1ccc(-c2noc(C(F)(F)F)n2)cc1)S(=O)(=O)N(C)C [Compound 1.100, N-(dimethylsulfamoyl)-N-[[4-[5-(trifluoromethyl)-1,2,4-oxadiazol-3-yl]phenyl]methyl] propan-2-amine]
≥ 80%: inhibition at 20 ppm [1] | pest or weed control at 200 ppm [2] | pest or weed control at 200 ppm [3]

CCN(Cc1ccc(-c2noc(C(F)(F)F)n2)cc1)S(=O)(=O)N(C)C [Compound 1.64, N-(dimethylsulfamoyl)-N-[[4-[5-(trifluoromethyl)-1,2,4-oxadiazol-3-yl]phenyl]methyl] ethanamine]
≥ 80%: inhibition at 20 ppm [1] | pest or weed control at 200 ppm [2] | pest or weed control at 200 ppm [3]

CN(Cc1ccc(-c2noc(C(F)(F)F)n2)cc1)S(=O)(=O)CC1CC1 [Compound 1.52, 1-cyclopropyl-N-methyl-N-[[4-[5-(trifluoromethyl)-1,2,4-oxadiazol-3-yl]phenyl]methyl] methanesulfonamide]
≥ 80%: inhibition at 20 ppm [1] | pest or weed control at 200 ppm [2] | pest or weed control at 200 ppm [3]

CCCN(Cc1ccc(-c2noc(C(F)(F)F)n2)cc1)S(=O)(=O)CCOC [Compound 1.73, 2-methoxy-N-propyl-N-[[4-[5-(trifluoromethyl)-1,2,4-oxadiazol-3-yl]phenyl]methyl] ethanesulfonamide]
≥ 80%: inhibition at 20 ppm [1] | pest or weed control at 200 ppm [2] | pest or weed control at 200 ppm [3]

Cn1ccc(S(=O)(=O)NCc2ccc(-c3noc(C(F)(F)F)n3)c(F)c2)n1 [Compound 3.14, N-[[3-fluoro-4-[5-(trifluoromethyl)-1,2,4-oxadiazol-3-yl]phenyl]methyl]-1-methyl-pyrazole-3-sulfonamide]
≥ 80%: inhibition at 20 ppm [1] | pest or weed control at 200 ppm [2] | pest or weed control at 200 ppm [3]

CC(C)N(Cc1ccc(-c2noc(C(F)(F)F)n2)cc1)S(C)(=O)=O [Compound 1.86, N-isopropyl-N-[[4-[5-(trifluoromethyl)-1,2,4-oxadiazol-3-yl]phenyl]methyl] methanesulfonamide]
≥ 80%: inhibition at 20 ppm [1] | pest or weed control at 200 ppm [2] | pest or weed control at 200 ppm [3]

CCCS(=O)(=O)NCc1ccc(-c2noc(C(F)(F)F)n2)cc1 [Compound 2.4, N-[[4-[5-(trifluoromethyl)-1,2,4-oxadiazol-3-yl]phenyl]methyl] propane-1-sulfonamide]
≥ 80%: inhibition at 20 ppm [1] | pest or weed control at 200 ppm [2] | pest or weed control at 200 ppm [3]

C/C=C/S(=O)(=O)NCc1ccc(-c2noc(C(F)(F)F)n2)cc1F [Compound 2.36, (E)-N-[[2-fluoro-4-[5-(trifluoromethyl)-1,2,4-oxadiazol-3-yl]phenyl]methyl] prop-1-ene-1-sulfonamide]
≥ 80%: inhibition at 20 ppm [1] | pest or weed control at 200 ppm [2] | pest or weed control at 200 ppm [3]

CCN(Cc1ccc(-c2noc(C(F)(F)F)n2)cc1)S(=O)(=O)CC [Compound 1.61, N-ethyl-N-[[4-[5-(trifluoromethyl)-1,2,4-oxadiazol-3-yl]phenyl]methyl] ethanesulfonamide]
≥ 80%: inhibition at 20 ppm [1] | pest or weed control at 200 ppm [2] | pest or weed control at 200 ppm [3]
